Experimental findings from US10946019B2, “Nurr1:RXR activating compounds for simultaneous treatment of symptoms and pathology of Parkinson's disease” (priority 2015, dated 2021) are described below.

One series has as its target Nurr1:RXRα heterodimer (Homo sapiens (Human), UniProt P19793). The series can be described thus: Nurr1:RXRα-dependent luciferase reporter (DR5-TK-Luc) transactivation assay. In kind it is cell-based. Conditions: SHSY-5Y cells co-transfected with human Nurr1, RXRα and DR5-TK-Luc. On the technique in general: Reporter assays use an easily measured gene product as a stand-in for the process of interest.

Series [1] in a line: Plasma and brain concentrations by LC-MS/MS after IP administration to mice. In kind it is in vivo, mouse. Here is the method: FIGS. 68A and 68B show the pharmacokinetic profile of XCT in blood plasma and in the brain of mice injected with this compound. […] Serial tail bleeds (n=3) were used for detection of the compound in plasma 1 and 2 hours after IP administration. Similarly, mice (n=3) were sacrificed 1 and 2 hours after IP administration and brains were dissected. The concentrations of the parent compound in plasma and brain were determined by LC-MS/MS.
The concentrations of the parent compound in plasma and brain were determined by LC/MSMS.
XCT0135908 was administered to mice to test its bioactivity.

Series [2] relates to SHSY-5Y dopaminergic cells. Kind of series: MPP+ induced cell death, MTT assay. As to conditions: 12.5 μM, varying concentrations of MPP+. In kind it is cell-based, human. Here is the method: MPP+, eradicates approximately 75% of the cells in 24 hours. […] Naive Neuro2A cells (FIG. 2A) or SH-SY5Y neuroblastoma cells FIG. 2B,C) were cultured in RPMI 1640, 10% fetal bovine serum at 37° C. Cells were pretreated with compound 3 for 12-24 h. Subsequent change of culture medium with addition of 0, 1, 2 and 4 mM MPP+ induced cell death. MTT assays determined the relative number of surviving cells FIG. 2D).
Such assays were performed, for instance, by adding compound 46 (12.5 μM) to human origin SHSY-5Y dopaminergic cells in which death was induced by the mitochondria complex I inhibitor MPP+ (1-methyl-4-phenylpyridinium), the active metabolite of MPTP (1-methyl-4-phenyl-1,2,3,6-tetrahydropyridine). […] Most of the MPP+-treated cells receiving vehicle died, while the few surviving cells remained attached to the plate but were rounded and had lost all projections. These morphological changes indicated impaired neuronal function. On the contrary, cells treated with compound 46 appeared healthy, flattened, well-attached, and their projections remained intact.
We examined the neuroprotective capability of Nurr1:RXRα heterodimer activation in SHSY-5Y cells where death was induced by either the oxidative stress related H2O2 or the mitochondria complex I inhibitor MPP+ (1-methyl-4-phenylpyridinium) (FIG. 72B). […] The protection conferred by compound 3 was Nurr1-dependent, since it was abrogated by knocking-down endogenous Nurr1 mRNA (FIGS. 1E and 72D). The neuroprotective effects of compound 3 extend to damage induced by the PD-associated mutation G2019S in the Leucine-Rich Repeat Kinase 2 (LRRK2) gene, the most common genetic defect associated with clinical PD (Tofaris et al. J. Neurosci. 26:3942-3950, 2006). Rat cortical neurons, co-transfected with CMV-GFP for identification, and CMVLRRK2-G2019S cDNAs show increased apoptosis as assessed by DAPI staining, compared to control neurons co-transfected with a LRRK2 wt cDNA.
On the technique in general: Formazan colour is commonly taken as a measure of viable cells.

Another series concerns c-jun. The series can be described thus: Midbrain c-jun expression by qPCR after administration to mice. In kind it is in vivo, mouse. Here is the method:
FIGS. 69A-69C show the brain penetration, half-life, and c-jun transcriptional activation of compound 3. […] Mice (n=5) were sacrificed 1, 2, 4, 8 and 24 hours after IP administration and brains were dissected 1, 2, 4, 8 and 24 hours post administration. The concentrations of the parent compound in plasma and brain were determined by LC/MSMS.
(§1) To assess the neuroprotective effect of compound 3, this compound was dosed to wt mice intraperitoneally (IP) at 10 mg/kg injections of compound 3 in Ethanol:PG:Saline 10:30:60. After 2 h and 4 h animals (n=3 per time point) were sacrificed, and their brains obtained. After extraction c-jun and tyrosine hydroxylase (TH) levels in brain extract were determined by qPCR (FIG. 1E, 1F).
In general terms: In qPCR the cycle at which signal appears reflects the starting amount.

Another series concerns the target Nur77:RXRα heterodimers (Homo sapiens (Human), UniProt P19793). The series can be described thus: Relative activation of Nurr1 and Nur77 in a luciferase reporter assay. Conditions: FIG. 67. In kind it is cell-based.
Series [3] deals with tyrosine hydroxylase (TH). The series can be described thus: Midbrain tyrosine hydroxylase expression by qPCR after administration to mice. In kind it is in vivo, mouse. Conditions: mice, IP or intracerebroventricular 1 and 10 mg/kg, different time points. Here is the method: as §1
Given the role of Nurr1:RXRα activation in the transcriptional regulation of DA biosynthesis genes, we tested whether compound 3 could increase DA levels in wt and ASYN transgenic mice (Tofaris et al. J. Neurosci. 26:3942-3950, 2006), which display reduced striatal DA levels after reaching adulthood. […] Aiming to model PD based on human genetic data, we also tested whether compound 3 could increase DA levels in ASYN transgenic mice. A single IP injection of compound 3 (10 mg/kg) was able increase striatal DA (t test p=0.01069) and DA metabolite levels in ASYN transgenics as well (FIG. 75C) in comparison to mice receiving vehicle.

Structures are written as SMILES.

Nurr1:RXRα heterodimer, sequence (P19793 whole entry): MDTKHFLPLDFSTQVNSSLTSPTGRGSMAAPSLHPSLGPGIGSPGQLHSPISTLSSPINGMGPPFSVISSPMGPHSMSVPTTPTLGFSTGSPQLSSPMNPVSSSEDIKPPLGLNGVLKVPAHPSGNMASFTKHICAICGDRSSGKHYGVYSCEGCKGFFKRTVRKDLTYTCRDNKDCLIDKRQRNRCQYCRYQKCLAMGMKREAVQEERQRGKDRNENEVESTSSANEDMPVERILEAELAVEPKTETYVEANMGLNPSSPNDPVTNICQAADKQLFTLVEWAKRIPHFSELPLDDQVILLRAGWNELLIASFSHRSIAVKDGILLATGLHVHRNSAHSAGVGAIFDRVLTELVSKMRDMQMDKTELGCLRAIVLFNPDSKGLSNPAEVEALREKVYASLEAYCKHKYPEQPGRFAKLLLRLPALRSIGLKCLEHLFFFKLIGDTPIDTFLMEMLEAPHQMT
Nurr1:RXRα heterodimer, sequence (P43354 whole entry partner): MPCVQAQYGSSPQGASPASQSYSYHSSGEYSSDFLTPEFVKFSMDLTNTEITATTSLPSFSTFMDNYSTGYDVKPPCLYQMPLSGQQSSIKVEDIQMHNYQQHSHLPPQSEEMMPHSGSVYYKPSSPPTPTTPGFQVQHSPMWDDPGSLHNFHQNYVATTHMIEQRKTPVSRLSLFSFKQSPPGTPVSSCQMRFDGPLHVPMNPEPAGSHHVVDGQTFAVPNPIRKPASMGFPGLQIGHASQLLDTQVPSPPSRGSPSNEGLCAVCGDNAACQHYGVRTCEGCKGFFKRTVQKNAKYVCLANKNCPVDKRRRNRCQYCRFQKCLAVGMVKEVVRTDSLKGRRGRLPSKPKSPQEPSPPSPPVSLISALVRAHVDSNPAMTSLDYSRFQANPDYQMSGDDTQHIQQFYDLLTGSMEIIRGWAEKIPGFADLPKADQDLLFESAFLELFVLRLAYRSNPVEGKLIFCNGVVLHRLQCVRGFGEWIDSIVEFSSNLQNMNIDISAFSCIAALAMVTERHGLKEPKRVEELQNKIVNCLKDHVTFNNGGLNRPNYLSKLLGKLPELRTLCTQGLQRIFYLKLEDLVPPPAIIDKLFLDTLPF
Nur77:RXRα heterodimers, sequence (P19793 whole entry, looked up): as the sequence (P19793 whole entry) above
Nur77:RXRα heterodimers, sequence (P22736 whole entry partner, looked up): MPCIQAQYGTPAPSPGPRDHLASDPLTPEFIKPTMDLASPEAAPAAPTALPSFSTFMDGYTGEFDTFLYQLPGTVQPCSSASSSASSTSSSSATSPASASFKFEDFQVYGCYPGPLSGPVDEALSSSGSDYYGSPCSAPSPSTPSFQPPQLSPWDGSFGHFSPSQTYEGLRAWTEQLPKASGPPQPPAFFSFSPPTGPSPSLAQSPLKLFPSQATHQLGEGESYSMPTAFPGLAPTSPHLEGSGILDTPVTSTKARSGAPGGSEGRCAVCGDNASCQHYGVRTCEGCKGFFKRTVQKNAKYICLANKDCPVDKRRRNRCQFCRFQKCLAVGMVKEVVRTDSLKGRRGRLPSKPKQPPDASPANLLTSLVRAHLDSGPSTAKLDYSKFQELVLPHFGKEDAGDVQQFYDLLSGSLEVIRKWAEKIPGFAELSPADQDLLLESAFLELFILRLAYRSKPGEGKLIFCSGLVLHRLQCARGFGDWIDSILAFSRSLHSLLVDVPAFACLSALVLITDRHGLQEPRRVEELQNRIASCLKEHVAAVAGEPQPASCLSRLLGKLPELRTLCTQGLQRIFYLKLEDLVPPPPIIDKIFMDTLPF
Experimental for Nurr1:RXRα heterodimer: The in vitro transactivation assay determined the capacity of the compounds of the invention to activate the Nurr1:RXR heterodimers. Naive SHSY-5Y cells were transiently co-transfected, using Lipofectamine 2000 (Invitrogen), with a plasmid expressing the human receptor Nurr1, a plasmid expressing the RXR human receptor (RXRα or RXRγ receptor) and a reporter plasmid DR5-TK-Luc. […] After incubation overnight, the expression of luciferase was measured (FIG. 1A).

What is called EC50 is the concentration at which the effect is half-maximal. High values mean weaker potency, low ones greater potency. On Nurr1:RXRα heterodimer, `C=CCc1c(C)nc(-c2ccccc2)nc1Nc1ccc(C(=O)OCOC(=O)C(C)(C)C)cc1` [Example 30, pivaloyloxymethyl 4-(5-allyl-6-methyl-2-phenylpyrimidin-4-ylamino)benzoate] yielded a concentration for a half-maximal effect (EC50) of 2000 nM.

As to `C=CCc1c(C)nc(-c2ccccc2)nc1Nc1ccc(C(=O)Oc2ccc(C[C@H](N)C(=O)O)cc2)cc1` [Example 31, (S)-2-(4-(4-(5-allyl-6-methyl-2-phenylpyrimidin-4-ylamino)benzoyloxy)phenyl)-1-carboxyethanaminium chloride], the midpoint of the response on Nurr1:RXRα heterodimer, the EC50, lay at 10000 nM.

At Nurr1:RXRα heterodimer, `C=CCc1c(C)nc(-c2ccccc2)nc1Nc1ccc(C(=O)OCCCOc2ccc(C[C@H](N)C(=O)O)cc2)cc1` [Example 32, (S)-2-(4-(3-(4-(5-allyl-6-methyl-2-phenylpyrimidin-4-ylamino)benzoyloxy)propoxy)phenyl)-1-carboxyethanaminium chloride] came in with a 50% effective concentration (EC50) of 5000 nM.

As to `Cc1nc(-c2ccccc2)nc2c1cc(C)n2-c1ccc(C(=O)O)cc1` [Example 45, 4-(4,6-dimethyl-2-phenyl-7H-pyrrolo[2,3-d]pyrimidin-7-yl)benzoic acid], on Nurr1:RXRα heterodimer, the EC50 amounted to 2500 nM.

For `Cc1nc(-c2ccccc2)nc2c1cc(C)n2-c1ccc(C(=O)O)cc1Br` [Example 46, 3-bromo-4-(4,6-dimethyl-2-phenyl-7H-pyrrolo[2,3-d]pyrimidin-7-yl)benzoic acid], in series [1] (mouse, in vivo, ip), the bioavailability entry is “highly bioavailable” and the brain penetration entry is recorded as “capable of crossing the blood brain barrier”. Besides, the “cell survival against MPP+” value in series [2] is “significantly increased the survival of cells”. Besides, the “c-jun transcriptional activation in the midbrain” value with c-jun (IP compound 46, qPCR 2 hours after administration) was “significant c-jun transcriptional activation”. Moreover, a half-maximal response on Nurr1:RXRα heterodimer (EC50) required 700 nM.

The term Kp denotes tissue or fluid exposure divided by exposure in the circulation. Regarding `C=CCc1c(C)nc(-c2ccccc2)nc1Nc1ccc(C(=O)O)cc1` [XCT0135908, reference compound], in series [1] (mice, 1 and 2 hours after IP, plasma and brain homogenates), the “compound stability in vivo” value was “low compound stability”. Besides, the brain penetration entry in series [1] (mice, IP administration) is reported as “minimal brain penetration”. The compound further returned a Kp in series [1] (mouse, brain homogenate / blood plasma, mice, 1 and 2 hours after IP XCT (printed 1 μg/kg), LC-MS/MS) of less than 0.03. Further, the “relative activation of Nur77:RXRα vs Nurr1:RXRα heterodimers” value on Nur77:RXRα heterodimers was “preferentially activates Nur77:RXRα heterodimers and not Nurr1:RXRα heterodimers”. For the same compound, in the series on c-jun (IP or intracerebroventricular 1 and 10 mg/kg, different time points), the midbrain c-jun expression result was “did not result in any expression alterations”. In series [3], the “midbrain TH expression” value is listed as “did not result in any expression alterations”.
